One series concerns C. elegans nematodes. Kind of series: C. elegans lifespan in media with additives. It is filed as in vivo. The settings on record: for Animals alive, % of initial (N=50): derivatized cyclodextrin 0.1% w/v in media, USA 1 water; for effect on C. elegans survival: added to culture media; for effect on C. elegans survival / number of animals surviving to old ages: result in words; for Animals alive, (N= % of initial =50): parent cyclodextrin 0.1% w/v in media, USA I water; for number of animals surviving to old ages: after day 15, 0.1 % w/v. On the procedure: C. elegans nematodes were grown in petri-type dishes containing normal nutrient liquid media prepared alternatively with USA 1 water (described in Example 2) lacking any further additive component (control) or the same water supplemented with a parent α-, β-, or γ-cyclodextrin, and/or a bioactive agent, as an active component of cellular hydration. Fifty ⊥ 3 worms were transferred to each dish. Each condition was repeated in triplicate. Experiments were repeated for USA II and BP I waters described in Example 2.
Water additives: A. Addition of parent α-, β- and γ-cvclodcxtrins. B. Addition of L-arginine and nicotinamide. C. Addition of inclusion complexes of cyclodextrins with L-arginine and nicotinamide.

Series [1] can be described thus: NIR spectroscopy of water bonding with cyclodextrin additives. It is filed as physicochemical. On the procedure: Hydration bond energies in pure waters and solutions of the same waters containing cyclodextrin compounds were assayed using IR spectroscopy in the near and middle infrared ranges. To record linear signals throughout an entire wavelength range, attenuation from water absorbance was minimized with a short optical length cuvette.
NIR range spectra were registered on a FOSS NIR Systems, Inc. 6500 spectrometer and Sample Transport Module (STM) using a 1 mm-es cuvette. […]
Three samples of water were used in the present study. A first water sample (USA I) was obtained from the U.S. and was purified by reverse osmosis, carbon filtration, ultraviolet light exposure, membrane filtration to 0.2 micron absolute, and ozonation. A second water sample (USA II) was also obtained from the U.S. A third water sample (BP I) was obtained from Budapest, Hungary.
The following cyclodextrins were added to the above described water samples at a concentration range of 0.1% - 5% w/v: • α-cyclodextrin (αCD also denoted as ACD), Lot. No. CYL-2322. • β-cyclodextrin (βCD also denoted as BCD). Lot. No. CYL-2518/2. • γ-cyclodextrin (γCD also denoted as GCD), Lot. No. CYL-2323. • 2-hydroxypropyl-β-cyclodextrin (HPβCD, HPBCD), DS^∗ = 3.5, Lot. No. CYL-2232. • 2-hydroxypropyl-γ-cyclodextrin (HPCD, HPGCD), DS^∗ = 4.8, Lot. No. CYL-2258. • carboxymethyl-β-cyclodextrin (CMBCD), Lot. No. CYL-2576. • quaternary-ammonium-β-cyclodextrin (QABCD).

Series [2] deals with Wheat seeds (Triticum aestivum). Kind of series: Wheat seed germination in water with additives. Format: in vivo. On the procedure: For each condition, ten seeds were placed in continuous water contact in a Petri-type dish kept at 25C in 12 hr light/dark cycles. Photometric images were recorded on days 1 to 6 after seeding. The percentage of seeds germinated was calculated and compared as a function of time and of the applied additive concentrations.
Water samples for seed germination were used alone with no additive, or containing cyclodextrins, or containing clathrate inclusion complexes of cyclodextrin with L-arginine or with nicotinamide (both obtained from Sigma Chemical Co.; St. Louis, MO), or with L-carnitine (from Lonza AG; Switzerland). […] Additive solutions were prepared fresh on the day of germination start.
Germination kinetics in control and additive-modified water under identical conditions were quantified as the percentage of the seeds having a sprout. Each determination consisted of 100 seeds for each parameter. Results are reported in Table 1, below, and in FIGS. 11-13.

Where [3] appears, read: wavelength region 900-1200 nm (FIG. 7).
The mark [4] stands for this setting: day 0, additive 0.5% w/v in USA I water, Table 1.
Where [5] appears, read: day 1, additive 0.5% w/v in USA I water, Table 1.
The mark [6] stands for this setting: day 2, additive 0.5% w/v in USA I water, Table 1.
Where [7] appears, read: day 3, additive 0.5% w/v in USA I water, Table 1.
Where [8] appears, read: day 4, additive 0.5% w/v in USA I water, Table 1.
[9] abbreviates: day 0, additive 0.5% w/v in USA 1 water, Table 2, percentage of the seeds having a sprout.
[10] abbreviates: day 1, additive 0.5% w/v in USA 1 water, Table 2, percentage of the seeds having a sprout.
Setting [11] is: day 2, additive 0.5% w/v in USA 1 water, Table 2, percentage of the seeds having a sprout.
The mark [12] stands for this setting: day 3, additive 0.5% w/v in USA 1 water, Table 2, percentage of the seeds having a sprout.
The mark [13] stands for this setting: day 4, additive 0.5% w/v in USA 1 water, Table 2, percentage of the seeds having a sprout.

As to “2-hydroxy-3-N,N,N-trimethylamino)propyl-β-cyclodextrin chloride [Quaternaryammonium-β-Cyclodextrin]”, the figures for the “Animals alive, % of initial (N=50)” value in the series on C. elegans nematodes (life span 10 days), with C. elegans nematodes (life span 15 days) and in the series with C. elegans nematodes (life span 18 days) were 98 % of initial, 13 % of initial and 2 % of initial, respectively. Besides, the “water-bond interactions, second-derivative NIR spectra” value (“water-bond interactions” for short) is on record as “significantly modified” in series [1] (1200-1500 nm (FIG. 8)), “significantly modified” in series [1] (1620-1710 nm (FIG. 9)), “further significantly modified” in series [1] (2170-2370 nm (FIG. 10)) and “significantly modified” in series [1] (setting [3]). The “effect on micro-structure of hydrogen bonds in bulk water (NIR spectral changes)” value in series [1] (comparison among cyclodextrin-treated water samples (FIGS. 9 and 10)) is “largest”.

Take `CC(O)COC[C@H]1O[C@@H]2O[C@H]3[C@H](O)[C@@H](O)[C@@H](O[C@H]4[C@H](O)[C@@H](O)[C@@H](O[C@H]5[C@H](O)[C@@H](O)[C@@H](O[C@H]6[C@H](O)[C@@H](O)[C@@H](O[C@H]7[C@H](O)[C@@H](O)[C@@H](O[C@H]8[C@H](O)[C@@H](O)[C@@H](O[C@H]1[C@H](O)[C@H]2O)O[C@@H]8COCC(C)O)O[C@@H]7COCC(C)O)O[C@@H]6COCC(C)O)O[C@@H]5COCC(C)O)O[C@@H]4COCC(C)O)O[C@@H]3COCC(C)O` (stereo partly drawn) [HP-β-Cyclodextrin, 2-hydroxypropyl-β-cyclodextrin]: the entries for the “Animals alive, % of initial (N=50)” value in the series on C. elegans nematodes (life span 10 days), with C. elegans nematodes (life span 15 days) and in the series with C. elegans nematodes (life span 18 days) were 96 % of initial, 17 % of initial and 0 % of initial, respectively. Moreover, the “water-bond interactions” value was “significantly modified” in series [1] (1200-1500 nm (FIG. 8)), “significantly modified” in series [1] (1620-1710 nm (FIG. 9)), “significantly modified” in series [1] (2170-2370 nm (FIG. 10)) and “further significantly modified” in series [1] (setting [3]).

In the case of `N=C(N)NCCC[C@H](N)C(=O)O` [L-Arg, L-arginine, reference compound], the “effect on C. elegans survival” value in the series with C. elegans nematodes is recorded as “little effect”. For the same compound, the “wheat seed germination rate” value in series [2] (setting [4]) is reported as 0 percentage of total seeds; in series [2] (setting [5]) it was 0 percentage of total seeds; in series [2] (setting [6]), 30 percentage of total seeds; in series [2] (setting [7]), 45 percentage of total seeds; in series [2] (setting [8]), 60 percentage of total seeds.

`NC(=O)c1cccnc1` [nicotinamide, reference compound]: in the series on C. elegans nematodes, the “effect on C. elegans survival” value is “little effect”. Further, the wheat seed germination rate was determined as 0% in series [2] (setting [9]); 0% in series [2] (setting [10]); 4% in series [2] (setting [11]); 10% in series [2] (setting [12]); 60% in series [2] (setting [13]).

For the compound `OC[C@H]1O[C@@H]2O[C@H]3[C@H](O)[C@@H](O)[C@@H](O[C@H]4[C@H](O)[C@@H](O)[C@@H](O[C@H]5[C@H](O)[C@@H](O)[C@@H](O[C@H]6[C@H](O)[C@@H](O)[C@@H](O[C@H]7[C@H](O)[C@@H](O)[C@@H](O[C@H]8[C@H](O)[C@@H](O)[C@@H](O[C@H]1[C@H](O)[C@H]2O)O[C@@H]8CO)O[C@@H]7CO)O[C@@H]6CO)O[C@@H]5CO)O[C@@H]4CO)O[C@@H]3CO` [β-Cydodextrin, β-cyclodextrin], the “Animals alive, (N= % of initial =50)” value in the series with C. elegans nematodes (life span 10 days) is on record as 100 % of initial; with C. elegans nematodes (life span 15 days), 18 % of initial; in the series with C. elegans nematodes (life span 18 days), 0 % of initial.

Turning to “carboxymethyl-β-cyclodextrin [Carboxymethyl-β-Cydodextrin]”, the “Animals alive, % of initial (N=50)” value with C. elegans nematodes (life span 10 days) is given as 94 % of initial; in the series on C. elegans nematodes (life span 15 days) it was 11 % of initial; with C. elegans nematodes (life span 18 days), 0 % of initial. The “water-bond interactions” value was “further significantly modified” in series [1] (1200-1500 nm (FIG. 8)), “significantly modified” in series [1] (1620-1710 nm (FIG. 9)), “significantly modified” in series [1] (2170-2370 nm (FIG. 10)) and “further significantly modified” in series [1] (setting [3]).

As for α-cyclodextrin, in the series with C. elegans nematodes, the “number of animals surviving to old ages” value is on record as “significantly increased”. Moreover, the “Animals alive, (N= % of initial =50)” value with C. elegans nematodes (life span 10 days) is 100 % of initial; with C. elegans nematodes (life span 15 days), 20 % of initial; in the series with C. elegans nematodes (life span 18 days), 2 % of initial. Also, the wheat seed germination rate is 0% in series [2] (setting [9]); 0 percentage of total seeds in series [2] (setting [4]); 11% in series [2] (setting [10]); 0 percentage of total seeds in series [2] (setting [5]); 18% in series [2] (setting [11]); 48 percentage of total seeds in series [2] (setting [6]). For the same compound, the wheat seed germination rate in series [2] (setting [12]) is 68%; in series [2] (setting [7]), 70 percentage of total seeds; in series [2] (setting [13]) it was 92%; in series [2] (setting [8]), 85 percentage of total seeds.

On to γ-cyclodextrin, for which the “number of animals surviving to old ages” value in the series on C. elegans nematodes is reported as “significantly increased”. In addition, the “Animals alive, (N= % of initial =50)” value was 100 % of initial in the series on C. elegans nematodes (life span 10 days), 13 % of initial with C. elegans nematodes (life span 15 days) and 2 % of initial in the series with C. elegans nematodes (life span 18 days).

The values above are taken from patent EP4043037A1, “CELLULAR HYDRATION COMPOSITIONS CONTAINING CYCLODEXTRINS” (Eastpond Laboratories Limited, priority 2010, dated 2012).
